According to paper PMC11738990, “A small-molecule TNIK inhibitor targets fibrosis in preclinical and clinical models” (Nature Biotechnology, 2024):
“And” between values parts separate entries of the source, which are not always exact repeats. Equal values may be shown once. Read-outs that look alike come from different tables or passages of the source.

Assays:
[1] = tested on: primary bronchial epithelial cells from healthy donors; experiment: EMT by FN1, high-content analysis; assay type: cell-based, human; settings: three healthy individuals
Procedure: For the measurement of EMT by FN1, on the first day, human primary bronchial epithelial cells were seeded. After 2 d, the medium of the cells was refreshed. […] After 1 h, all cells were treated with 5 ng ml^−1 TGF-β1. On the ninth day (72 h after triggering), cells were fixed with 4% formaldehyde, stained for FN1 and with DAPI and then imaged and quantified via HCA (IN Cell Analyzer 2200, GE Healthcare).
Segmentation and quantification of α-SMA and FN1 immunoreactivity was carried out with an HCA algorithm, with density × area (D × A) output. Data normalization of raw α-SMA or FN1 (D × A) to percent inhibition values was performed on a plate-to-plate basis.
[…]
μp is the average α-SMA or FN1 value of the positive control (TGF-β1 + 1 μM SB525334). μn is the average α-SMA or FN1 value of the vehicle control (TGF-β1 + 0.1% DMSO). Xi is the compound α-SMA or FN1 value. IC50 values for all compounds (if calculable, based on the point of inflection) were calculated with GraphPad Prism using non-linear fit of log (inhibitor) versus response (four parameter).
DAPI fluorescence was applied for HCA-based quantification of the number of imaged cells on a plate-to-plate basis.
Percent remaining cells = (Xi/μn) × 100%
μn is the average number of nuclei of the vehicle control (TGF-β1 + 0.1% DMSO). Xi is the compound number of nuclei.

HK-2 cells = experiment: TGF-β-induced α-SMA expression, western blot; assay type: cell-based, human
Procedure: INS018-055 stock was diluted to eight concentrations in a threefold dilution with DMSO from the final highest concentration at 10 μM. A total of 3.0 × 10^5 HK-2 cells per well were seeded into a six-well plate containing 2.0 ml culture medium at a density of 3.0 × 10^5 cells per well. The cells were cultured overnight at 37 °C. The next day, the complete medium was replaced with K-SFM medium supplemented with 0.025 mg ml^−1 bovine pituitary extract, 2.5 ng ml^−1 EGF and 1% penicillin–streptomycin for starvation. After 24 h of incubation, HK-2 cells were treated with compounds (eight concentrations, threefold dilution) for 30 min before being stimulated with 8 ng ml^−1 TGF-β for an additional 48 h. TGF-β induction was used as the maximum induction positive control. The final DMSO concentration in the assay was 0.1%. Cells were cultured for 48 h at 37 °C. The culture medium was discarded at the end of induction. Cells were washed once using ice-cold DPBS. RIPA buffer was added to lyse the cells for 20 min. Cells were collected, and the supernatant was stored at −80 °C. The total amount of protein in the lysate was determined using the BCA Protein Assay Kit.
For whole-cell lysates, cells were collected and lysed on ice for 20 min with RIPA buffer with protease and phosphatase inhibitors (cOmplete and PhosSTOP, Roche). The protein concentration of the cell lysates was determined using the BCA Protein Assay Kit. After denaturation, whole-cell lysates and cytoplasm and nuclear extraction fractions were loaded onto 4–12% gradient Bis-Tris gels (15 wells) and 4–20% Tris-glycine gels (26 wells), respectively. For western blot detection of target proteins, 15 μg of whole-cell lysates, 5–10 μg of the cytoplasm fraction, 1–2 μg of nuclear matrix and 2–4 μg of the chromatin fraction were loaded into each lane. For western blot detection of histone 3, 0.4–1 μg of the chromatin fraction was loaded. The gels were run for 0.5 h at 80 V before being run at 120 V for another 1 h. When electrophoresis was completed, the gels containing target proteins were transferred onto NC membrane using the iBlot 2 Gel Transfer Device for 13 min at 20 V. All membranes were blocked with 5% BSA in TBST buffer at room temperature for 1 h and then incubated with primary antibodies specific to the indicated targets in TBST buffer containing 5% BSA at 4 °C overnight. After the primary antibody, membranes were washed three times with TBST buffer before incubation with HRP-conjugated secondary antibodies at room temperature for 1 h. Membranes were stripped with Restore Western Blot Stripping Buffer (Thermo Fisher) for GAPDH reference protein detection after exposure for the target proteins. Images of blots were acquired using Image Quant LAS 4000. Integrated intensity of bands from 16-bit blot images was used for quantitation with the software Image Studio Lite. Protein-quantification data of two independent experiments were calculated and analyzed using GraphPad.

**Q.** `CC(C)n1cnc(-c2ccc(F)cc2)c1-c1nc(C(=O)Nc2ccc(N3CCN(C)CC3)cc2)c[nH]1` [INS018_055, 2-[4-(4-fluorophenyl)-1-(prop-2-yl)imidazol-5-yl]-N-[4-(4-methylhexahydropyrazin-1-yl)phenyl]-1H-imidazole-4-carboxamide] was tested. Which IC50 [1] did it give?
**A.** 63 nM (2×) and 500 nM

**Q.** And the “Any TEAE” value (healthy subjects; MAD BID 7 d 30 mg N=6)?
**A.** 66.7%

**Q.** What about the “Any TEAE” value (healthy subjects; MAD BID 7 d 60 mg N=6) of the same molecule?
**A.** 100.0%

**Q.** And the “Any TEAE” value (healthy subjects; MAD BID 7 d 90 mg N=6)?
**A.** 100.0%

**Q.** And the Abdominal distension (healthy subjects; MAD any dose N=18)?
**A.** 5.6%

**Q.** And the Anaemia (healthy subjects; MAD any dose N=18)?
**A.** 11.1%

**Q.** What about the “Any TEAE” value (healthy subjects; MAD any dose N=18) of the same molecule?
**A.** 88.9%

**Q.** What about the Arthralgia (healthy subjects; MAD any dose N=18) of the same molecule?
**A.** 5.6%

**Q.** What about the Basophil count increased (healthy subjects; MAD any dose N=18) of the same molecule?
**A.** 5.6%

**Q.** And the “Blood and lymphatic system disorders” value (healthy subjects; MAD any dose N=18)?
**A.** 11.1%

**Q.** What about the Blood bilirubin increased (healthy subjects; MAD any dose N=18) of the same molecule?
**A.** 5.6%

**Q.** And the “Blood creatine phosphokinase increased” value (healthy subjects; MAD any dose N=18)?
**A.** 5.6%

**Q.** And the Blood fibrinogen decreased (healthy subjects; MAD any dose N=18)?
**A.** 11.1%

**Q.** What about the Blood pressure decreased (healthy subjects; MAD any dose N=18) of the same molecule?
**A.** 5.6%

**Q.** And the Blood pressure increased (healthy subjects; MAD any dose N=18)?
**A.** 5.6%

**Q.** And the Cardiac disorders (healthy subjects; MAD any dose N=18)?
**A.** 5.6%

**Q.** What about the Dizziness (healthy subjects; MAD any dose N=18) of the same molecule?
**A.** 22.2%

**Q.** And the Electrolyte imbalance (healthy subjects; MAD any dose N=18)?
**A.** 5.6%

**Q.** What about the Epistaxis (healthy subjects; MAD any dose N=18) of the same molecule?
**A.** 11.1%

**Q.** What about the Fecal occult positive (healthy subjects; MAD any dose N=18) of the same molecule?
**A.** 55.6%

**Q.** What about the Gastrointestinal disorders (healthy subjects; MAD any dose N=18) of the same molecule?
**A.** 22.2%

**Q.** And the Haematuria (healthy subjects; MAD any dose N=18)?
**A.** 16.7%

**Q.** What about the Headache (healthy subjects; MAD any dose N=18) of the same molecule?
**A.** 16.7%

**Q.** And the Hepatic enzyme increased (healthy subjects; MAD any dose N=18)?
**A.** 5.6%

**Q.** What about the Hyperphosphataemia (healthy subjects; MAD any dose N=18) of the same molecule?
**A.** 5.6%

**Q.** And the Hypertriglyceridaemia (healthy subjects; MAD any dose N=18)?
**A.** 50.0%

**Q.** And the Hyponatraemia (healthy subjects; MAD any dose N=18)?
**A.** 5.6%

**Q.** And the Infections and infestations (healthy subjects; MAD any dose N=18)?
**A.** 5.6%

**Q.** And the Influenza like illness (healthy subjects; MAD any dose N=18)?
**A.** 27.8%

**Q.** And the Investigations (healthy subjects; MAD any dose N=18)?
**A.** 77.8%

**Q.** What about the Limb discomfort (healthy subjects; MAD any dose N=18) of the same molecule?
**A.** 0.0%

**Q.** And the “Musculoskeletal and connective tissue disorders” value (healthy subjects; MAD any dose N=18)?
**A.** 33.3%

**Q.** And the Nasal obstruction (healthy subjects; MAD any dose N=18)?
**A.** 5.6%

**Q.** And the Nausea (healthy subjects; MAD any dose N=18)?
**A.** 5.6%

**Q.** What about the Nervous system disorders (healthy subjects; MAD any dose N=18) of the same molecule?
**A.** 38.9%

**Q.** And the Pain in extremity (healthy subjects; MAD any dose N=18)?
**A.** 27.8%

**Q.** What about the Pruritus (healthy subjects; MAD any dose N=18) of the same molecule?
**A.** 5.6%

**Q.** And the Pyrexia (healthy subjects; MAD any dose N=18)?
**A.** 11.1%

**Q.** And the Rash (healthy subjects; MAD any dose N=18)?
**A.** 16.7%

**Q.** What about the “Renal and urinary disorders” value (healthy subjects; MAD any dose N=18) of the same molecule?
**A.** 16.7%

**Q.** And the “Respiratory, thoracic and mediastinal disorders” value (healthy subjects; MAD any dose N=18)?
**A.** 16.7%

**Q.** What about the Sinus bradycardia (healthy subjects; MAD any dose N=18) of the same molecule?
**A.** 5.6%

**Q.** What about the “Skin and subcutaneous tissue disorders” value (healthy subjects; MAD any dose N=18) of the same molecule?
**A.** 22.2%

**Q.** And the “Total bile acids increased” value (healthy subjects; MAD any dose N=18)?
**A.** 5.6%

**Q.** And the Vomiting (healthy subjects; MAD any dose N=18)?
**A.** 5.6%

**Q.** And the “White blood cells urine positive” value (healthy subjects; MAD any dose N=18)?
**A.** 11.1%

**Q.** What about the “Any TEAE” value (healthy subjects; SAD 30 mg N=6) of the same molecule?
**A.** 83.3%

**Q.** And the “Any TEAE” value (healthy subjects; SAD 60 mg N=6)?
**A.** 33.3%

**Q.** And the “Any TEAE” value (healthy subjects; SAD 120 mg N=6)?
**A.** 50.0%

**Q.** What about the “Any TEAE” value (healthy subjects; SAD any dose N=18) of the same molecule?
**A.** 55.6%

**Q.** What about the Blood glucose increased (healthy subjects; SAD any dose N=18) of the same molecule?
**A.** 0.0%

**Q.** What about the “Blood uric acid increased” value (healthy subjects; SAD any dose N=18) of the same molecule?
**A.** 5.6%

**Q.** And the Body temperature increased (healthy subjects; SAD any dose N=18)?
**A.** 5.6%

**Q.** What about the Cardiac disorders (healthy subjects; SAD any dose N=18) of the same molecule?
**A.** 11.1%

**Q.** What about the Fecal occult positive (healthy subjects; SAD any dose N=18) of the same molecule?
**A.** 27.8%

**Q.** And the Gastrointestinal disorders (healthy subjects; SAD any dose N=18)?
**A.** 5.6%

**Q.** And the Headache (healthy subjects; SAD any dose N=18)?
**A.** 5.6%

**Q.** What about the Hypertriglyceridaemia (healthy subjects; SAD any dose N=18) of the same molecule?
**A.** 27.8%

**Q.** What about the Hypotension (healthy subjects; SAD any dose N=18) of the same molecule?
**A.** 5.6%

**Q.** And the Investigations (healthy subjects; SAD any dose N=18)?
**A.** 33.3%

**Q.** And the Nervous system disorders (healthy subjects; SAD any dose N=18)?
**A.** 5.6%

**Q.** What about the Sinus bradycardia (healthy subjects; SAD any dose N=18) of the same molecule?
**A.** 11.1%

**Q.** And the Vascular disorders (healthy subjects; SAD any dose N=18)?
**A.** 5.6%

**Q.** What about the “White blood cells urine positive” value (healthy subjects; SAD any dose N=18) of the same molecule?
**A.** 0.0%

**Q.** What about the Noninfective gingivitis (healthy subjects; in vivo) of the same molecule?
**A.** 5.6%

**Q.** What about the “Upper respiratory tract infection” value (healthy subjects; in vivo) of the same molecule?
**A.** 5.6%

**Q.** What about the “a-SMA normalized by GAPDH” value (HK-2 cells; 0.004572 uM) of the same molecule?
**A.** 2.139

**Q.** What about the “a-SMA normalized by GAPDH” value (HK-2 cells; 0.0411523 uM) of the same molecule?
**A.** 1.835

**Q.** And the “a-SMA normalized by GAPDH” value (HK-2 cells; 0.123457 uM)?
**A.** 1.612

**Q.** What about the “a-SMA normalized by GAPDH” value (HK-2 cells; 0.37037 uM) of the same molecule?
**A.** 1.401

**Q.** What about the “a-SMA normalized by GAPDH” value (HK-2 cells; 3.33333 uM) of the same molecule?
**A.** 1.182

**Q.** What about the “a-SMA normalized by GAPDH” value (HK-2 cells; 10 uM) of the same molecule?
**A.** 1.23

**Q.** And the IC50 (HK-2 cells; TGF-β 8 ng/ml, 48 h, single experiment, read-out: IC50 for α-SMA inhibition)?
**A.** 104 nM
